# In patent US11020360B2, “Methods, compounds, compositions and vehicles for delivering 3-amino-1-propanesulfonic acid” (Bellus Health, Inc., priority 2006, dated 2021):
# Values joined by “and” are separate entries in the source; they are usually repeats but may differ in a detail not shown here. Identical values can stand only once. Counter-ions that a name gives are not always drawn.
# Experiment: Mouse whole blood stability
# Assay type: in vitro ADME
# Settings: 37° C.
# Procedure: (§1) Test compounds were incubated for a total of 240 minutes at 37° C. in whole mouse and whole human blood. The compounds were added at time-point 0 and sample aliquots were withdrawn at each time point (usually 0, 60 and 240 minutes). The samples were extracted using protein precipitation. Analysis of extracted samples was achieved using HPLC with MS detection. Several types of HPLC columns and mobile phase were used depending of the polarity of the compound. The compound stability was determined by the % of compound remaining at 240 minutes (peak response of compound at 240 minutes/peak response at 0 minutes×100).
row,Blood stability (% of compound remaining after 240 min.) Mouse Blood,SMILES
1,+++ (+++: >75%),CC(OC(=O)CCCC(=O)O)OC(=O)NCCCS(=O)(=O)O (stereo not drawn) [Compound C11]
2,+ (+: <30%),CC(C)(C)C(=O)OC(OC(=O)NCCCS(=O)(=O)O)C1CCCCC1 (stereo not drawn) [Compound C20]
3,+ (+: <30%),CC(OC(=O)CC(C)(C)CC(=O)OCc1ccccc1)OC(=O)NCCCS(=O)(=O)O (stereo not drawn) [Compound C7]
4,+++ (+++: >75%),CC(OC(=O)CC(C)(C)CC(=O)O)OC(=O)NCCCS(=O)(=O)O (stereo not drawn) [Compound C8]
5,+ (+: <30%),CC(OC(=O)CCCC(=O)OCc1ccccc1)OC(=O)NCCCS(=O)(=O)O (stereo not drawn) [Compound C12]
6,++ (++: 30-75%),CC(OC(=O)NCCCS(=O)(=O)O)OC(=O)C(C)(C)c1ccccc1 (stereo not drawn) [Compound C14]
7,+ (+: <30%),CC(=O)OC(OC(=O)NCCCS(=O)(=O)O)C(C)(C)C (stereo not drawn) [Compound C24]
8,++ (++: 30-75%),CC(OC(=O)CCCCC(=O)O)OC(=O)NCCCS(=O)(=O)O (stereo not drawn) [Compound C9]
9,+ (+: <30%),"CC(OC(=O)NCCCS(=O)(=O)O)OC(=O)c1ccccc1 (stereo not drawn) [Compound C16, 4-aza-7-methyl-6,8,-dioxa-5,9,-dioxo-9-phenyl-1-nonanesulfonic Acid Sodium Salt]"
10,+ (+: <30%),CC(OC(=O)NCCCS(=O)(=O)O)OC(=O)C(C)(C)c1cccs1 (stereo not drawn) [Compound C13]
11,+++ (+++: >75%),CC(C)(CCC(=O)NCCCS(=O)(=O)O)C(=O)O [Compound B4]
12,+ (+: <30%),"CC(=O)Oc1ccc(COC(=O)NCCCS(=O)(=O)O)cc1 [Compound C1, 3-(p-acetyloxybenzyloxycarbonyl)amino-1-propanesulfonic Acid Sodium Salt]"

# Second part, the molecule before the results:
row,SMILES,Blood stability (% of compound remaining after 240 min.) Mouse Blood
1,N[C@@H](CO)C(=O)NCCCS(=O)(=O)O [Compound A7],+++ (+++: >75%)
2,N[C@@H](COCc1ccccc1)C(=O)NCCCS(=O)(=O)O [Compound A18],+ (+: <30%)
3,C[C@H](N)C(=O)NCCCS(=O)(=O)O [Compound A8],++ (++: 30-75%)
4,N[C@@H](CCC(=O)OCc1ccccc1)C(=O)NCCCS(=O)(=O)O [Compound A19],+ (+: <30%)
5,NCCCC[C@H](N)C(=O)NCCCS(=O)(=O)O [Compound A4],+++ (+++: >75%)
6,N[C@@H](Cc1c[nH]c2ccccc12)C(=O)NCCCS(=O)(=O)O [Compound A16],++ (++: 30-75%)
7,CSCC[C@H](N)C(=O)NCCCS(=O)(=O)O [Compound A6],+ (+: <30%)
8,CC(C)(N)C(=O)NCCCS(=O)(=O)O [Compound A14],+++ (+++: >75%)
9,C[C@@H](N)C(=O)NCCCS(=O)(=O)O [Compound A9],+++ (+++: >75%)
10,CC(C)C[C@H](N)C(=O)NCCCS(=O)(=O)O [Compound A5],+ (+: <30%)

# Experiment: Bioavailability of exemplary compounds in mice (3APS quantified in plasma)
# Assay type: in vivo
# Settings: compared with 3APS
# Procedure: Selected exemplary compounds were tested for bioavailability in mice. Bioavailability estimates are performed for 3APS after administration of molar equivalent the selected compounds. […] The animals are anesthetized with isoflurane before blood collection (approximately 45 sec). Samples are collected at 5, 30, 60, 120, 180, 240 and 360 min post intravenous administration and at 15, 30, 60, 120, 180, 240 and 360 min post oral administration. One animal is used to obtain a baseline sample (pre-dose sample). Blood samples are collected into Sarstedt™ micro tubes (EDTA KE/1.3 ml), kept on ice until centrifugation at 4° C. at a minimum speed of 3000 rpm (1620 G) for 10 min. Plasma samples are transferred into Eppendorf™ tubes, immediately placed on dry ice and stored at −80° C. Plasma samples are stored frozen at […] pending analysis.
# Compounds in mouse plasma are extracted using protein precipitation. Quantitation of 3APS in mouse plasma matrix is achieved using LC-MS detection. Sample concentration is calculated using a calibration curve.
row,SMILES,effect on bioavailability of 3APS
1,N[C@@H](CO)C(=O)NCCCS(=O)(=O)O [Compound A7],increasing the bioavailability of 3APS
2,N[C@@H](COCc1ccccc1)C(=O)NCCCS(=O)(=O)O [Compound A18],increasing the bioavailability of 3APS
3,NCCCC[C@H](N)C(=O)NCCCS(=O)(=O)O [Compound A4],increasing the bioavailability of 3APS

# Experiment: Single oral and IV administration of 14C-3APS to rats
# Assay type: in vivo, male Sprague-Dawley rats
# Settings: IV, Mean
# Procedure: The purpose of this study was to investigate the absorption, metabolism and excretion profiles of ^14C-3APS following a single intravenous bolus and oral administration to rats. Thirty-six male Sprague-Dawley rats received a single 100 mg/kg (˜50 μCi/animal) dose of ^14C-3APS by an IV bolus injection (water or isotonic saline solution) and an additional 36 male rats received the same dose level by oral gavage (in water). Blood, urine, feces, brain and CSF samples were collected for up to 72 hr following dose administration. Plasma, urine, brain and CSF concentrations of 3APS and 2-carboxyethanesulfonic acid (3APS major metabolite) were measured using LC and MS/MS detection method. Plasma, urine, feces, brain and CSF samples were analyzed for total radioactivity using appropriate sample preparation procedures and scintillation counting.
row,SMILES,AUC0-∞ Total Radioactivity [nmol eq · h/mL]
1,NCCCS(=O)(=O)O [^14C-3APS],1591

# Same assay, conditions: IV, individual animals 1001-1004
row,SMILES,AUC0-∞ Total Radioactivity
1,NCCCS(=O)(=O)O [^14C-3APS],1625 nmol eq · h/mL and 1588 nmol eq · h/mL and 1883 nmol eq · h/mL and 1266 nmol eq · h/mL

# Same assay, conditions: PO, Mean
row,SMILES,AUC0-∞ Total Radioactivity [nmol eq · h/mL]
1,NCCCS(=O)(=O)O [^14C-3APS],749

# Same assay, conditions: PO, individual animals 3001-3004
row,SMILES,AUC0-∞ Total Radioactivity
1,NCCCS(=O)(=O)O [^14C-3APS],874 nmol eq · h/mL and 714 nmol eq · h/mL and 628 nmol eq · h/mL and 781 nmol eq · h/mL

# Experiment: Metabolic profiling of 14C-3APS in mice
# Assay type: in vivo, male CD-1 mice
# Settings: Mouse plasma; single oral 100 mg/kg 14C-3APS
# Procedure: (§2) Three single dose studies were conducted in mice, rats and dogs to determine the metabolic profile of ^14C-3APS in plasma, urine and feces. In the first study, twenty-seven male CD-1 mice received a single dose of 100 mg/kg (20 μCi/animal) of ^14C-3APS by oral gavage. Blood samples (3 animals/time point) were collected for 12 hr following drug administration while urine and feces (3 animals/time point) samples were collected for 96 hr. In the second study, eight male Sprague-Dawley rats received a single dose of 100 mg/kg (50 μCi/animal) of ^14C-3APS by oral gavage while in the third study, three male Beagle dogs received a single dose of 100 mg/kg (30 μCi/kg) of ^14C-3APS by oral gavage. For the rat and dog studies, blood samples were collected for 24 hr following drug administration while urine and feces samples were collected for 72 hr. All samples were analyzed for total radioactivity using appropriate sample preparation procedures and scintillation counting. Plasma and urine samples were also analyzed for 3APS and 3APS metabolites (2-carboxyethanesulfonic acid, 3-hydroxy-1-propanesulfonic acid and 3-acetylamino-1-propanesulfonic acid) concentrations using qualified HPLC and MS/MS methods.
SMILES,Total Radioactivity AUC0-τ [μmol eq · min/mL],Total Radioactivity AUC∞ [μmol eq · min/mL]
NCCCS(=O)(=O)O [^14C-3APS],24.4,25.0

# Same assay, conditions: mouse, on average in all species
row,SMILES,% of the dose excreted in urine as total radioactivity [%]
1,NCCCS(=O)(=O)O [^14C-3APS],60

# Experiment: Metabolic profiling of 14C-3APS in rats
# Assay type: in vivo, male Sprague-Dawley rats
# Settings: Rat plasma; single oral 100 mg/kg 14C-3APS
# Procedure: as §2
SMILES,Total Radioactivity AUC0-τ [μmol eq · min/mL],Total Radioactivity AUC∞ [μmol eq · min/mL]
NCCCS(=O)(=O)O [^14C-3APS],43.3,45.2

# Same assay, conditions: rat, on average in all species
row,SMILES,% of the dose excreted in urine as total radioactivity [%]
1,NCCCS(=O)(=O)O [^14C-3APS],60

# Experiment: Human whole blood stability
# Assay type: in vitro ADME
# Settings: 37° C.
# Procedure: as §1
row,Blood stability (% of compound remaining after 240 min.) Human Blood,SMILES
1,+++ (+++: >75%),CC(OC(=O)CCCC(=O)O)OC(=O)NCCCS(=O)(=O)O (stereo not drawn) [Compound C11]
2,++ (++: 30-75%),CC(C)(C)C(=O)OC(OC(=O)NCCCS(=O)(=O)O)C1CCCCC1 (stereo not drawn) [Compound C20]
3,+++ (+++: >75%),CC(OC(=O)CC(C)(C)CC(=O)OCc1ccccc1)OC(=O)NCCCS(=O)(=O)O (stereo not drawn) [Compound C7]
4,+++ (+++: >75%),CC(OC(=O)CC(C)(C)CC(=O)O)OC(=O)NCCCS(=O)(=O)O (stereo not drawn) [Compound C8]
5,++ (++: 30-75%),CC(OC(=O)CCCC(=O)OCc1ccccc1)OC(=O)NCCCS(=O)(=O)O (stereo not drawn) [Compound C12]
6,+++ (+++: >75%),CC(OC(=O)NCCCS(=O)(=O)O)OC(=O)C(C)(C)c1ccccc1 (stereo not drawn) [Compound C14]
7,++ (++: 30-75%),CC(=O)OC(OC(=O)NCCCS(=O)(=O)O)C(C)(C)C (stereo not drawn) [Compound C24]
8,++ (++: 30-75%),CC(OC(=O)CCCCC(=O)O)OC(=O)NCCCS(=O)(=O)O (stereo not drawn) [Compound C9]
9,++ (++: 30-75%),"CC(OC(=O)NCCCS(=O)(=O)O)OC(=O)c1ccccc1 (stereo not drawn) [Compound C16, 4-aza-7-methyl-6,8,-dioxa-5,9,-dioxo-9-phenyl-1-nonanesulfonic Acid Sodium Salt]"
10,+ (+: <30%),CC(OC(=O)NCCCS(=O)(=O)O)OC(=O)C(C)(C)c1cccs1 (stereo not drawn) [Compound C13]
11,+++ (+++: >75%),CC(C)(CCC(=O)NCCCS(=O)(=O)O)C(=O)O [Compound B4]
12,+ (+: <30%),"CC(=O)Oc1ccc(COC(=O)NCCCS(=O)(=O)O)cc1 [Compound C1, 3-(p-acetyloxybenzyloxycarbonyl)amino-1-propanesulfonic Acid Sodium Salt]"

# The next lines start with the molecule.
row,SMILES,Blood stability (% of compound remaining after 240 min.) Human Blood
1,N[C@@H](CO)C(=O)NCCCS(=O)(=O)O [Compound A7],+++ (+++: >75%)
2,N[C@@H](COCc1ccccc1)C(=O)NCCCS(=O)(=O)O [Compound A18],+ (+: <30%)
3,C[C@H](N)C(=O)NCCCS(=O)(=O)O [Compound A8],+ (+: <30%)
4,N[C@@H](CCC(=O)OCc1ccccc1)C(=O)NCCCS(=O)(=O)O [Compound A19],+ (+: <30%)
5,NCCCC[C@H](N)C(=O)NCCCS(=O)(=O)O [Compound A4],+ (+: <30%)
6,N[C@@H](Cc1c[nH]c2ccccc12)C(=O)NCCCS(=O)(=O)O [Compound A16],+++ (+++: >75%)
7,CSCC[C@H](N)C(=O)NCCCS(=O)(=O)O [Compound A6],++ (++: 30-75%)
8,CC(C)(N)C(=O)NCCCS(=O)(=O)O [Compound A14],+++ (+++: >75%)
9,C[C@@H](N)C(=O)NCCCS(=O)(=O)O [Compound A9],+++ (+++: >75%)
10,CC(C)C[C@H](N)C(=O)NCCCS(=O)(=O)O [Compound A5],+ (+: <30%)

# Experiment: Metabolic profiling of 14C-3APS in dogs
# Assay type: in vivo, male Beagle dogs
# Settings: Dog plasma; single oral 100 mg/kg 14C-3APS
# Procedure: as §2
SMILES,Total Radioactivity AUC0-τ [μmol eq · min/mL],Total Radioactivity AUC∞ [μmol eq · min/mL]
NCCCS(=O)(=O)O [^14C-3APS],45.4,108

# Same assay, conditions: dog, on average in all species
row,SMILES,% of the dose excreted in urine as total radioactivity [%]
1,NCCCS(=O)(=O)O [^14C-3APS],60
